One block for each compound: values may come before it.
Columns and labels:
Plasmodium falciparum [1] = test: Antimalarial activity against Plasmodium falciparum FCQ-27 isolate infected in erythrocytes assessed as reduction in [G-3H]Hypoxanthine incorporation incubated for 24 hrs followed by addition of [G-3H]Hypoxanthine and measured after 18 to 20 hrs by scintillation counting method; assay type: functional
[2] = biological target: T1, Hypoxanthine-guanine phosphoribosyltransferase (Homo sapiens, UniProt P00492); test: Inhibition of human N-terminal His6-tagged HGPRT using Prib-PP as substrate by Hanes-plot based method
T1 sequence (P00492 whole entry): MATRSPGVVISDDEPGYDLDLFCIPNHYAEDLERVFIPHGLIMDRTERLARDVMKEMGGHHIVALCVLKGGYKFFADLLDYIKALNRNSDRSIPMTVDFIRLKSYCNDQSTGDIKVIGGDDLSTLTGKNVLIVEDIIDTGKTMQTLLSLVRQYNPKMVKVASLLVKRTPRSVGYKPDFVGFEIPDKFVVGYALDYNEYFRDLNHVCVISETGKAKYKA

[3] = Inhibition of Plasmodium falciparum N-terminal His6-tagged HGXPRT using Prib-PP as substrate by Hanes-plot based method
[4] = biological target: T2, Purine nucleoside phosphorylase (Homo sapiens, UniProt P00491)
T2 sequence (P00491 whole entry): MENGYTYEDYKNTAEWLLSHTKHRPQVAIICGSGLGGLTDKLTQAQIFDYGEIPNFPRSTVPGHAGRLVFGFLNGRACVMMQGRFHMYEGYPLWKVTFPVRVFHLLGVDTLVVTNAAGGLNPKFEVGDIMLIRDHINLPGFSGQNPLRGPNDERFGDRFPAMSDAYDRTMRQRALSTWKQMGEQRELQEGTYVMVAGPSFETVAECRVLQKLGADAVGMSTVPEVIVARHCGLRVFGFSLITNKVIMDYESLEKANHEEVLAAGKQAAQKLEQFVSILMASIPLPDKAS
Description: Inhibition of human PNP assessed as inhibitor constant for enzyme-inhibitor-substrate complex formation

[5] = biological target: T3, Purine nucleoside phosphorylase (Plasmodium falciparum, UniProt Q8T9Z7)
T3 sequence (Q8T9Z7 whole entry): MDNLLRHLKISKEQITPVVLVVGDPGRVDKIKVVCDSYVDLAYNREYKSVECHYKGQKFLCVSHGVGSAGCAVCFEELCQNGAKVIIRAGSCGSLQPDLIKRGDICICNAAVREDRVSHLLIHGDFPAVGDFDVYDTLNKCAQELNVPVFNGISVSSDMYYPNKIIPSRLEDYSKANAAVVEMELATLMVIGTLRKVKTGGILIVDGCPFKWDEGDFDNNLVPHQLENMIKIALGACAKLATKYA
Description: Inhibition of Plasmodium falciparum His-tagged PNP assessed as inhibitor constant for enzyme-inhibitor-substrate complex formation

[6] = biological target: T2, Purine nucleoside phosphorylase; remark: listed apart in the source
Description: Inhibition of human PNP assessed as inhibitor constant for enzyme-inhibitor complex formation

[7] = biological target: T3, Purine nucleoside phosphorylase; remark: listed apart in the source
Description: Inhibition of Plasmodium falciparum His-tagged PNP assessed as inhibitor constant for enzyme-inhibitor complex formation

Plasmodium falciparum [8] = test: Antimalarial activity against synchronized Plasmodium falciparum K1 ring form infected in human erythrocytes assessed as reduction in parasite growth after 72 hrs by Hoechst 33258 staining based fluorescence assay; assay type: functional, organism-based; conditions: K1, 72 h
Plasmodium falciparum [9] = test: Antimalarial activity against synchronized Plasmodium falciparum ring stage form assessed as reduction in [2,8-3H]Hypoxanthine incorporation incubated for 48 hrs followed by addition of [2,8-3H]Hypoxanthine and measured after 24 hrs by liquid scintillation counting method; assay type: functional, organism-based
Plasmodium falciparum [10] = test: microbe, parasite or virus in culture; conditions: 3D7
Description: Antimalarial activity against Plasmodium falciparum 3D7 infected in human erythrocytes assessed as reduction in [3H]ethanolamine incorporation incubated for 18 hrs followed by addition of [3H]ethanolamine and measured after 48 hrs by scintillation counting method

Plasmodium falciparum [11] = test: Antimalarial activity against Plasmodium falciparum; assay type: functional; conditions: read-out: ID50 (the source's name)
[12] = Inhibition of Plasmodium vivax HGPRT using Prib-PP as substrate by Hanes-plot based method
[13] = Inhibition of Plasmodium falciparum HGXPRT using Prib-PP as substrate by Hanes-plot based method
[14] = biological target: T1, Hypoxanthine-guanine phosphoribosyltransferase
Description: Inhibition of human HGPRT using Prib-PP as substrate by Hanes-plot based method

Plasmodium falciparum [15] = test: Antimalarial activity against Plasmodium falciparum D6 assessed as reduction in parasite growth preincubated for 48 hrs followed by addition of [3H]Hypoxanthine and measured after 48 hrs by [3H]Hypoxanthine incorporation assay; assay type: functional, organism-based
Plasmodium falciparum [16] = test: Antimalarial activity against chloroquine/ pyrimethamine-resitant Plasmodium falciparum W2 assessed as reduction in parasite growth preincubated for 48 hrs followed by addition of [3H]Hypoxanthine and measured after 48 hrs by [3H]Hypoxanthine incorporation assay; assay type: functional, organism-based
Plasmodium falciparum [17] = test: Antimalarial activity against multi drug-resistant Plasmodium falciparum K1 assessed as reduction in parasite growth [3H]Hypoxanthine incorporation assay; assay type: functional; conditions: read-out: ID50 (the source's name)
Adenosine deaminase [18] = biological target: T4, Adenosine deaminase (Plasmodium falciparum, UniProt Q86GS5); test: Inhibition of Plasmodium falciparum ADA assessed as reduction in formation of ammonia using adenosine as substrate incubated for 15 mins by spectrophotometric analysis
T4 sequence (Q86GS5 whole entry): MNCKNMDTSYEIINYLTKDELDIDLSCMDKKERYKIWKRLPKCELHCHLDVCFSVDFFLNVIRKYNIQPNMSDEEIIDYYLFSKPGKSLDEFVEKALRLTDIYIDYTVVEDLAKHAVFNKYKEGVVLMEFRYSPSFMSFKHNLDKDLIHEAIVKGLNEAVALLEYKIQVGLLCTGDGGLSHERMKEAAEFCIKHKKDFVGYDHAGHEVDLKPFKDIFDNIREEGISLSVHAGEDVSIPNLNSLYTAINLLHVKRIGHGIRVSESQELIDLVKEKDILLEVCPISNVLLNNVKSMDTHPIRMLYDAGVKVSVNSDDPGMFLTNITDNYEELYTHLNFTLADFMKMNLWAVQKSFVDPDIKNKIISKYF

Adenosine deaminase [19] = biological target: T4, Adenosine deaminase; test: Inhibition of Plasmodium falciparum N-terminal thrombin cleavable His6-tagged ADA expressed in Escherichia coli BL21 assessed as reduction in formation of inosine using adenosine as substrate
Adenosine deaminase [20] = biological target: T4, Adenosine deaminase; test: Inhibition of Plasmodium falciparum N-terminal thrombin cleavable His6-tagged ADA expressed in Escherichia coli BL21 assessed as equilibrium dissociation constant by measuring reduction in formation of inosine using adenosine as substrate

SMILES: Nc1nc(Cl)nc2c1ncn2[C@@H]1O[C@H](CO)[C@@H](O)[C@H]1O
IC37 (Plasmodium falciparum [1]): 11 µM

Ki [2]: 600 nM
SMILES: Nc1nc2c(ncn2C[C@@H](CO)OCCP(=O)(O)O)c(=O)[nH]1
Ki [3]: 100 nM

SMILES: O=c1[nH]cnc2c(CN3C[C@@H](CO)[C@H](O)C3)c[nH]c12
Ki [4]: 80 nM
Ki [5]: 0.68 nM
Ki [6]: 1700 nM
Ki [7]: 1.5 nM

SMILES: Nc1ncnc2c1ncn2C[C@@H](CO)OCP(=O)(O)O
IC50 (Plasmodium falciparum [8]): 180 nM

SMILES: Nc1ncnc2c1ncn2C[C@H](CO)OCP(=O)(O)O
IC50 (Plasmodium falciparum [8]): 6000 nM

SMILES: Nc1ncnc2c1ccn2[C@@H]1O[C@H](CO)[C@@H](O)[C@H]1O [TUBERCIDIN]
IC37 (Plasmodium falciparum [1]): 0.7 µM

SMILES: Nc1nccc2c1ncn2C[C@H](CO)OCP(=O)(O)O
IC50 (Plasmodium falciparum [8]): 100000 nM

IC50 (Plasmodium falciparum [9]): 2000 nM
SMILES: Nc1ncnc2c1c(I)cn2[C@@H]1O[C@H](CO)[C@@H](O)[C@H]1O [IODOTUBERCIDIN]

SMILES: O=c1[nH]cnc2c([C@@H]3N[C@H](CO)[C@@H](O)[C@H]3O)c[nH]c12 [FORODESINE]
IC50 (Plasmodium falciparum [10]): 63 nM

IC50 (Plasmodium falciparum [11]): 5000 nM
SMILES: Nc1ncnc2c1ncn2[C@@H]1C[C@@H](OP(=O)(O)OC[C@H]2O[C@@H](n3cc(F)c(=O)[nH]c3=O)C[C@@H]2O)[C@H](CO)O1

SMILES: Nc1nc2c(ncn2[C@@H]2CN(C(=O)CCP(=O)(O)O)C[C@H]2OC[C@@H](O)P(=O)(O)O)c(=O)[nH]1
Ki [12]: 8 nM
Ki [13]: 7 nM

Ki [14]: 400 nM
SMILES: Nc1nc2c(ncn2C[C@@H](CO)n2cc(P(=O)(O)O)nn2)c(=O)[nH]1
Ki [12]: 2000 nM
Ki [13]: 2000 nM

SMILES: CC(C)(C)C(=O)OCOP(=O)(COCCn1cnc2c(N)ncnc21)OCOC(=O)C(C)(C)C [ADEFOVIR DIPIVOXIL]
IC50 (Plasmodium falciparum [8]): 37300 nM

SMILES: Nc1nc(N)c2ncn(C[C@@H](CO)OCP(=O)(O)O)c2n1
IC50 (Plasmodium falciparum [8]): 2100 nM

SMILES: CCOC(=O)[C@H](Cc1ccccc1)NP(=O)(CCO[C@@H](Cn1cnc2c(=O)[nH]cnc21)C(=O)OC)N[C@@H](Cc1ccccc1)C(=O)OCC
IC50 (Plasmodium falciparum [15]): 50000 nM
IC50 (Plasmodium falciparum [16]): 50000 nM

SMILES: O=[N+]([O-])c1ccc(CSc2ncnc3c2ncn3[C@@H]2O[C@H](CO)[C@@H](O)[C@H]2O)cc1 [NITROBENZYLMERCAPTOPURINE RIBONUCLEOSIDE]
IC50 (Plasmodium falciparum [17]): 4200 nM

Ki (Adenosine deaminase [18]): 0.007 nM
SMILES: OC[C@H]1O[C@@H](n2cnc3c2NC=NC[C@@H]3O)[C@H](O)[C@@H]1O

Ki [2]: 6000 nM
SMILES: COC(=O)[C@H](Cn1cnc2c(=O)[nH]cnc21)OCCP(=O)(O)O
Ki [3]: 1000 nM

Ki (Adenosine deaminase [18]): 0.25 nM
Ki (Adenosine deaminase [19]): 0.68 nM
Ki (Adenosine deaminase [20]): 0.08 nM
SMILES: OC[C@H]1O[C@@H](n2cnc3c2N=CNC[C@H]3O)[C@H](O)[C@@H]1O [COFORMYCIN]

IC50 (Plasmodium falciparum [11]): 4000 nM
SMILES: Nc1ncnc2c1ncn2[C@H]1O[C@@H](CO)[C@H](OP(=O)(O)OC[C@H]2O[C@@H](n3cc(F)c(=O)[nH]c3=O)C[C@@H]2O)[C@@H]1O

From ChEMBL document CHEMBL4376805, “Plasmodium Purine Metabolism and Its Inhibition by Nucleoside and Nucleotide Analogues” (J Med Chem, 2019)
